These results are taken from patent US12667608B2 (priority 2020, dated 2026).

Converted amounts (≈) assume the structure as drawn.

Experiment in all cases: microbe, parasite or virus in culture
What all share (assay type): cell-based

One assay concerns M. bovis BCG. Conditions: Mycobacterium tuberculosis variant bovis BCG, 672 h.
The next assay relates to Mtb H37Rv. Conditions: Mycobacterium tuberculosis, 672 h.
Assay [1] has as its system Recombinant drug-resistant BCG Strain. As to conditions: Mycobacterium tuberculosis variant bovis BCG, 672 h.

For the compound `NCC[C@H](O)C(=O)N[C@@H]1C[C@H](N)[C@@H](O[C@H]2O[C@H](CN)[C@@H](O)[C@H](O)[C@H]2O)[C@H](O)[C@H]1O[C@H]1O[C@H](CO)[C@@H](O)[C@H](N)[C@H]1O` [AMK, amikacin], the MIC with M. bovis BCG is 0.5 mg/L (≈ 0.854 µM); against Mtb H37Rv, 0.5 to 1 mg/L (≈ 0.854 to 1.71 µM); in assay [1] it was 5 mg/L (≈ 8.54 µM).
The like results for `CC(C)/N=c1\cc2n(-c3ccc(Cl)cc3)c3ccccc3nc-2cc1Nc1ccc(Cl)cc1` [CLA, clofazimine] were, in that order, 0.25 mg/L (≈ 0.528 µM), 8 mg/L (≈ 16.9 µM) and 0.5 mg/L (≈ 1.06 µM).
The like results for `CC[C@@H](CO)NCCN[C@@H](CC)CO` [EMB, ethambutol] were, in that order, 0.5 mg/L (≈ 2.45 µM), 0.5 mg/L (≈ 2.45 µM) and 5 mg/L (≈ 24.5 µM).
In the case of `NNC(=O)c1ccncc1` [INH, isoniazid], the MIC in the assay on M. bovis BCG was 0.1 mg/L (≈ 0.729 µM); in the assay on Mtb H37Rv it was 0.03 to 0.06 mg/L (≈ 0.219 to 0.438 µM); in assay [1], 0.06 mg/L (≈ 0.438 µM).
The like results for `C[C@H]1COc2c(N3CCN(C)CC3)c(F)cc3c(=O)c(C(=O)O)cn1c23` [LFX, levofloxacin] were, in that order, 0.5 mg/L (≈ 1.38 µM), 0.5 mg/L (≈ 1.38 µM) and 4 mg/L (≈ 11.1 µM).
The corresponding values for `CC(=O)NC[C@H]1CN(c2ccc(N3CCOCC3)c(F)c2)C(=O)O1` [LZD, linezolid] are 0.125 to 0.5 mg/L (≈ 0.371 to 1.48 µM), 0.25 mg/L (≈ 0.741 µM) and 0.03 mg/L (≈ 0.0889 µM).
With `COc1c(N2C[C@@H]3CCCN[C@@H]3C2)c(F)cc2c(=O)c(C(=O)O)cn(C3CC3)c12` [MFX, moxifloxacin], the MIC is 0.5 mg/L (≈ 1.25 µM) in the assay with M. bovis BCG, 0.25 to 0.5 mg/L (≈ 0.623 to 1.25 µM) in the assay on Mtb H37Rv and 4 mg/L (≈ 9.96 µM) in assay [1].
The corresponding values for `O=[N+]([O-])c1cn2c(n1)OC[C@@H](OCc1ccc(OC(F)(F)F)cc1)C2` [PA-824, Pretomanid] are 0.25 mg/L (≈ 0.696 µM), 0.06 to 0.125 mg/L (≈ 0.167 to 0.348 µM) and 0.25 mg/L (≈ 0.696 µM).
The corresponding values for `Nc1ccc(C(=O)O)c(O)c1` [PAS, para-aminosalicylic acid] are 0.25 mg/L (≈ 1.63 µM), 0.3 to 1 mg/L (≈ 1.96 to 6.53 µM) and 0.25 mg/L (≈ 1.63 µM).
The corresponding values for `CCCc1cc(C(N)=S)ccn1` [PRO, prothionamide] are 0.25 mg/L (≈ 1.39 µM), 0.5 mg/L (≈ 2.77 µM) and 64 mg/L (≈ 355 µM).
On to `CO[C@H]1/C=C/O[C@@]2(C)Oc3c(C)c(O)c4c(O)c(c(/C=N/N5CCN(C)CC5)c(O)c4c3C2=O)NC(=O)/C(C)=C\C=C\[C@H](C)[C@H](O)[C@@H](C)[C@@H](O)[C@@H](C)[C@H](OC(C)=O)[C@@H]1C` [RIF, rifampicin], for which the values for the MIC (in the assay with M. bovis BCG; against Mtb H37Rv; in assay [1]) were 0.032 mg/L (≈ 0.0389 µM), 0.25 mg/L (≈ 0.304 µM) and 0.5 mg/L (≈ 0.608 µM), respectively.
The like results for `[H]/N=C(/N)N[C@H]1[C@H](O)[C@@H](O)[C@H](O[C@@H]2O[C@@H](C)[C@](O)(C=O)[C@H]2O[C@@H]2O[C@@H](CO)[C@H](O)[C@@H](O)[C@@H]2NC)[C@@H](N/C(N)=N\[H])[C@@H]1O` [STR, streptomycin] were, in that order, 0.25 mg/L (≈ 0.43 µM), 1 mg/L (≈ 1.72 µM) and 64 mg/L (≈ 110 µM).
The corresponding values for `COc1nc2ccc(Br)cc2cc1[C@@H](c1ccccc1)[C@@](O)(CCN(C)C)c1cccc2ccccc12` [TMC 207, bedaquiline] are 0.03 mg/L (≈ 0.054 µM), 0.03 to 0.12 mg/L (≈ 0.054 to 0.216 µM) and 0.03 mg/L (≈ 0.054 µM).
